The results in this text go back to US20070129430A1, “Agent for enhancing the production of collagen, their preparation and use” (priority 2003, published 2007).

The test system of one assay is NHDF cells. Put plainly: collagen assay: collagen production level of NHDF cells (Sircol Soluble Collagen Assay Kit). The class given is cell-based, human. Particulars: for concentration dependence of the action of enhancing collagen production (FIG. 3) / order of the levels of action of enhancing collagen production next to 10-HDA (FIG. 3): 0.02 to 1.5 mM fatty acid with 50 μM AA2G; for action of enhancing collagen production (FIG. 1): 5 days culture; for action of enhancing the collagen production by L-ascorbic acid: used in combination with L-ascorbic acid. The method, then: NHDF cells, a human fibroblast, were seeded in a 96-well microplate (commercialized by Becton Dickinson, N.J., USA) with […] (designated as “DMEM medium” hereinafter, commercialized by Nissui Pharmaceutical Co., Ltd., Tokyo, Japan)(pH 7.1 to 7.4), supplemented with 10% (v/v) fetal calf serum and an adequate amount of penicillin, to give a cell density of 2.5×10^4 cells/well, and incubated at 37° C. for 24 hours under a 5% (v/v) CO2 condition. Thereafter, the supernatant was replaced with 200 μl of a DMEM medium supplemented with a sample having a prescribed concentration and/or 50 μM of L-ascorbic acid 2-glucoside (a product name of “AA2G” with a purity of 98.0% or over, produced by Hayashibara Biochemical Laboratories, Inc., Okayama, Japan), and further cultured for another five days. After completion of the culture, the collagen production level from cells in each well of the microplate was quantified by using “Sircol™ Soluble Collagen Assay Kit”, commercialized by Biocolar Ltd., Northern Ireland.
The action of enhancing the collagen production by 10-HDA was examined by the collagen assay shown in Experiment 1. In the collagen assay, 150 μg/ml of 10-HDA and/or a DMEM medium containing 50 μM of the same AA2G as used in Experiment 1 were used to examine the action of enhancing the collagen production by 10-HDA. As a control, there were provided two systems with 50 μM of AA2G or a DMEM medium free of AA2G, both of which were free of sample. The results are in FIG. 1.
The relationship between the concentration of 10-HDA and the action of enhancing collagen production was also studied. In the collagen assay, using a DMEM medium containing 0 to 300 μg/ml of 10-HDA as a sample and 50 μM of AA2G, the action of enhancing the collagen production by 10-HDA was examined. As a control, a DMEM medium containing 50 μM of AA2G free of sample was provided. The results are in FIG. 2.
The results are in FIG. 3.
To examine the influence of 10-HDA on the action of enhancing the collagen production by L-ascorbic acid or AA2G, the following experiment was conducted: In the collagen assay shown in Experiment 1, the levels of collagen production in cell culture by L-ascorbic acid or 10-HDA were compared and analyzed using a DMEM medium containing as a sample 0, 0.1, 0.2 or 0.5 mg/ml of 10-HDA and 50 μM of L-ascorbic acid or AA2G as L-ascorbic acids in terms of L-ascorbic acid, and another DMEM medium containing as a sample 0, 0.1, 0.2 or 0.5 mg/ml of 10-HDA but free of L-ascorbic acids. The results are in FIG. 4.

Assay [1] deals with TGF-β production in human fibroblasts (NHDF cells). Nature of the assay: TGF-β production in human fibroblasts (TGF-β1 Emax ImmunoAssay System). Format: cell-based. The settings on record: for enhancement of TGF-β production: concrete data not shown; for TGF-β production level: 24 hours, culture supernatant. As for the experimental part:
NHDF cells, a human fibroblast, commercialized by Kurabo Industries Ltd., Okayama, Japan, were seeded in 96-well microplates (commercialized by Becton Dickinson, N.J., USA) with a DMEM medium supplemented with 10% (v/v) fetal calf serum to give a cell density of 2.5×10^4 cells/well, and incubated for 24 hours under a 5% (v/v) CO2 condition. Thereafter, the supernatant in each microplate was removed, replaced with a fresh DMEM medium containing 0, 0.5 or 1.5 mM of 10-HDA and 0.2 μg/ml of AA2G, and cultured for 24 hours. After completion of the culture, the level of TGF-β in a supernatant of each well of the microplates was quantified by using “TGF-β1 E MAX IMMUNO ASSAY SYSTEM”, commercialized by Promega Corp., Wis., USA, and the data were statistically handled.

Molecules are shown by their SMILES.

For the compound `O=C1O[C@H]([C@@H](O)CO)C(O)=C1O[C@H]1O[C@H](CO)[C@@H](O)[C@H](O)[C@H]1O` [AA2G, L-ascorbic acid 2-glucoside], the “action of enhancing collagen production of L-ascorbic acid derivatives used in combination with fatty acids” value with NHDF cells (in combination with fatty acids such as 10-HDA, concrete data not shown) was “more remarkable action of enhancing collagen production”.
Turning to `CCCCCCCCCC(=O)O` [decanoic acid], the “enhancement of TGF-β production” value in assay [1] is “also enhance TGF-β production”.
The same measure, in the same setting: to `O=C(O)CCCCCCCCC(=O)O` [sebacic acid] belongs “also enhance TGF-β production”.
For `CCCCCCCC=CC(=O)O` [2-decenoic acid], in the assay on NHDF cells, the “concentration dependence of the action of enhancing collagen production (FIG. 3)” value was “roughly in a concentration dependent manner”; the “order of the levels of action of enhancing collagen production next to 10-HDA (FIG. 3)” value was “in the order of 10-hydroxydecanoic acid, 2-decenoic acid, decanoic acid, and sebacic acid”. Further, the “enhancement of TGF-β production” value in assay [1] was “also enhance TGF-β production”.
On to `O=C(O)C=CCCCCCCCO` [10-HDA, 10-hydroxy-2-decenoic acid], for which the “action of enhancing collagen production (FIG. 4)” value is recorded as “action of enhancing collagen production in a concentration dependent manner” in the assay on NHDF cells (0, 0.1, 0.2 or 0.5 mg/ml 10-HDA in the presence of 50 μM AA2G (in terms of L-ascorbic acid)) and “action of enhancing collagen production in a concentration dependent manner” with NHDF cells (0, 0.1, 0.2 or 0.5 mg/ml 10-HDA in the presence of 50 μM L-ascorbic acid). Moreover, the “concentration dependence of the action of enhancing collagen production (FIG. 2)” value in the assay on NHDF cells (0 to 300 μg/ml 10-HDA with 50 μM AA2G) is listed as “concentration-dependent action of enhancing collagen production”. Besides, the “action of enhancing collagen production (FIG. 1)” value was “distinct action of enhancing collagen production” in the assay on NHDF cells (150 μg/ml 10-HDA in combination with 50 μM AA2G) and “did not show the action of enhancing collagen production” with NHDF cells (150 μg/ml 10-HDA, absence of AA2G). Also, the “action of enhancing collagen production (FIG. 3)” value in the assay on NHDF cells (0.02, 0.06, 0.17, 0.5 or 1.5 mM fatty acid with 50 μM AA2G) was “significantly high action of enhancing collagen production”. For the same compound, the “action of enhancing collagen production with AA2G relative to that attained with L-ascorbic acid (FIG. 4)” value in the assay on NHDF cells (10-HDA with 50 μM AA2G versus 50 μM L-ascorbic acid) is listed as “about two-times higher”. Besides, the “action of inducing collagen production when used alone” value in the assay with NHDF cells (used alone, without L-ascorbic acid) is “did not show an action of inducing collagen production”. Besides, the “action of enhancing the collagen production by L-ascorbic acid” value was “exhibited an action of enhancing the collagen production by L-ascorbic acid” in the assay with NHDF cells and “This result coincided with that of Ingredient X” in the assay with NHDF cells (listed as Ingredient X). Also, the “concentration giving maximum action of enhancing collagen production (FIG. 3)” value in the assay on NHDF cells (with 50 μM AA2G) was no less than 0.17 mM. Also, the TGF-β production level turned out to be 292 ± 68 pg/mL in assay [1] (0.5 mM 10-HDA with 0.2 μg/ml AA2G) and 378 ± 74 pg/mL in assay [1] (1.5 mM 10-HDA with 0.2 μg/ml AA2G). In addition, the “enhancement of TGF-β production in human fibroblasts” value in assay [1] (in the presence of AA2G, 0 to 1.5 mM) is listed as “enhances the TGF-β production in human fibroblasts in a concentration dependent manner”.
With `O=C(O)CCCCCCCCCO` [10-hydroxydecanoic acid], in the assay with NHDF cells, the “concentration dependence of the action of enhancing collagen production (FIG. 3)” value is recorded as “roughly in a concentration dependent manner”; the “order of the levels of action of enhancing collagen production next to 10-HDA (FIG. 3)” value is “in the order of 10-hydroxydecanoic acid, 2-decenoic acid, decanoic acid, and sebacic acid”. The “enhancement of TGF-β production” value in assay [1] is listed as “also enhance TGF-β production”.
